Experimental data published in US8889677B2, “Substituted triazoles useful as mGlu5 receptor modulators” (Boehringer Ingellheim International GmbH, priority 2012, dated 2014).
pEC50: −log10 of the molar value.

These molecules were tested against T1, human recombinant mGluR5 (Homo sapiens, UniProt P41594) (assay: positive modulation of mGluR5, calcium based FLIPR assay in HEK 293 cells). Conditions: HEK 293 cell line expressing human recombinant mGluR5; EC50 of the modulation of the glutamate response (glutamate approx. 5% basal stimulation); peak height of Ca release fluorescence signal.
T1 construct: expressed in transfected cells; host or cells: HEK 293 cell line cultured with tetracycline, hygromycin and geneticin; tetracycline removed 3-7 days before the assay
T1 sequence (P41594 21-1212): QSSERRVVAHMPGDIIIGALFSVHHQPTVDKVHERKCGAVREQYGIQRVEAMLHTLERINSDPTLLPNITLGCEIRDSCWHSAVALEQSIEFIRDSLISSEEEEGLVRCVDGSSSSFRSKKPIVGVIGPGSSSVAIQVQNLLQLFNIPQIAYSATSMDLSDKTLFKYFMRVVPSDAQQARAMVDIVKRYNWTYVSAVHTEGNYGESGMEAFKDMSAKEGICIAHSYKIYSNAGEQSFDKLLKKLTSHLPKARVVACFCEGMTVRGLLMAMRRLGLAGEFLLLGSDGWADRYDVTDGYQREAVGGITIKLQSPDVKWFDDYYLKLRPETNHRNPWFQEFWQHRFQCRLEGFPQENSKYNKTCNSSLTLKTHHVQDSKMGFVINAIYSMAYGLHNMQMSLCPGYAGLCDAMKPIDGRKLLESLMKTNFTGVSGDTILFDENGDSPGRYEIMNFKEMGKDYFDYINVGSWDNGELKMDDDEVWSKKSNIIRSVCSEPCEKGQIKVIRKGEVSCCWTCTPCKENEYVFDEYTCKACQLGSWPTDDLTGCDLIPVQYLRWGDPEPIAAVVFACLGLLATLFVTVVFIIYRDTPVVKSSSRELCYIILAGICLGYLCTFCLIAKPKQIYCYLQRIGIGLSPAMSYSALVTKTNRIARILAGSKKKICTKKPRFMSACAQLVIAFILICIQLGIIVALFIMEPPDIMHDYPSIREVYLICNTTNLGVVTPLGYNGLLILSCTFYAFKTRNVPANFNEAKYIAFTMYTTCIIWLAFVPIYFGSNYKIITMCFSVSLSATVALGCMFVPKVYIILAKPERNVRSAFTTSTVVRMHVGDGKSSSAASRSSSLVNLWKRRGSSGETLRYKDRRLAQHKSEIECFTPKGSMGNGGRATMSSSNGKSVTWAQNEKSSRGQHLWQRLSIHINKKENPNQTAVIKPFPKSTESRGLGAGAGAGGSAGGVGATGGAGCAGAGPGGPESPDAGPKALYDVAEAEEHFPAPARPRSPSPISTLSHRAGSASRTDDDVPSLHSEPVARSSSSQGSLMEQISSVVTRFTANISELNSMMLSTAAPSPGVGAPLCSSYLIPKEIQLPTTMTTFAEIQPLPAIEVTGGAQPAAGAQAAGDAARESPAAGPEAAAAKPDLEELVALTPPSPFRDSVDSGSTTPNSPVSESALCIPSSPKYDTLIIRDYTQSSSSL
Procedure, shortened: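 Potentiation EC50 derived by nonlinear fit of peak calcium fluorescence after a near-5%-maximal glutamate challenge, following 5 min compound exposure (intrinsic activity also recorded). Dye-loaded recombinant human mGluR5 HEK 293 cells in Ringer solution pH 7.4, 1% DMSO; plate controls were vehicle (100%) and 10 μM CDPPB (200%).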

Going from Cc1ccnc(N2CCN(C(=O)Cn3nc(-c4ccc(F)c(C)c4)nc3CC(C)C)CC2)c1 [Example 07.04.105.] to Cc1ccnc(N2CCN(C(=O)Cn3nc(-c4ccc(F)c(C)c4)nc3CCC(C)C)CC2)c1 [Example 07.04.121.], the pEC50 rises from 6.42 to 6.68 (0.26 log units). The second is the more potent here.

First: Cc1cc(-c2nc(CC(C)C)n(CC(=O)N3CCN(c4ccccn4)CC3)n2)ccc1F [Example 07.04.106.]
Second: CCCCc1nc(-c2ccc(F)c(C)c2)nn1CC(=O)N1CCN(c2ccccn2)CC1 [Example 07.04.116.]
The pEC50 of the first is 0.25 log units higher: 6.41 for the first, 6.16 for the second. The first is the more potent here.

Going from COc1ccnc(N2CCN(C(=O)Cn3nc(-c4ccc(F)c(C)c4)nc3CC(C)C)CC2)c1 [Example 07.04.107.] to COc1ccnc(N2CCN(C(=O)Cn3nc(-c4ccc(F)c(C)c4)nc3CCC(C)C)CC2)c1 [Example 07.04.120.], the pEC50 rises from 6.30 to 6.82 (0.52 log units). The second is the more potent here.

First: Cc1cc(-c2nc(CC(C)C)n(CC(=O)N3CCN(c4ncccn4)CC3)n2)ccc1F [Example 07.04.108.]
Second: Cc1cc(-c2nc(CCC(C)C)n(CC(=O)N3CCN(c4ncccn4)CC3)n2)ccc1F [Example 07.04.122.]
The pEC50 of the first is 0.35 log units lower: 6.50 for the first, 6.85 for the second. The second is the more potent here.

Compared with COc1cc(N2CCN(C(=O)Cn3nc(-c4ccc(F)c(C)c4)nc3CC(C)C)CC2)ncn1 [Example 07.04.109.], CCCCc1nc(-c2ccc(F)c(C)c2)nn1CC(=O)N1CCN(c2cc(OC)ncn2)CC1 [Example 07.04.119.] is 0.45 log units higher in pEC50: 6.08 for the first, 6.53 for the second.

COc1ccnc(N2CCN(C(=O)Cn3nc(-c4ccc(F)c(C)c4)nc3C3CCCC3)CC2)c1 [Example 07.04.110.] and Cc1ccnc(N2CCN(C(=O)Cn3nc(-c4ccc(F)c(C)c4)nc3C3CCCC3)CC2)c1 [Example 07.04.114.] are within 0.2 log units of each other in pEC50: 6.39 for the first, 6.31 for the second.

First: Cc1cc(-c2nc(C3CCCC3)n(CC(=O)N3CCN(c4ncccn4)CC3)n2)ccc1F [Example 07.04.111.]
Second: Cc1cc(-c2nc(C3CCCCC3C)n(CC(=O)N3CCN(c4ncccn4)CC3)n2)ccc1F (stereo not shown) [Example 07.04.135.]
The pEC50 of the first is 0.47 log units higher: 6.88 for the first, 6.41 for the second.

Going from COc1cc(N2CCN(C(=O)Cn3nc(-c4ccc(F)c(C)c4)nc3C3CCCC3)CC2)ncn1 [Example 07.04.112.] to COc1cc(N2CCN(C(=O)Cn3nc(-c4ccc(F)c(C)c4)nc3C3CCCCC3C)CC2)ncn1 (stereo not shown) [Example 07.04.137.], the pEC50 falls from 6.51 to 5.98 (0.53 log units). The first is the more potent here.

First: Cc1cc(-c2nc(C3CCCC3)n(CC(=O)N3CCN(c4ccccn4)CC3)n2)ccc1F [Example 07.04.113.]
Second: Cc1cc(-c2nc(C3CCCCC3C)n(CC(=O)N3CCN(c4ccccn4)CC3)n2)ccc1F (stereo not shown) [Example 07.04.133.]
The pEC50 of the first is 0.61 log units higher: 6.58 for the first, 5.97 for the second.

Going from CCCCc1nc(-c2ccc(F)c(C)c2)nn1CC(=O)N1CCN(c2cc(C)ccn2)CC1 [Example 07.04.115.] to CCCCCc1nc(-c2ccc(F)c(C)c2)nn1CC(=O)N1CCN(c2cc(C)ccn2)CC1 [Example 07.04.125.], the pEC50 rises from 6.68 to 6.96 (0.28 log units). The second is the more potent here.

Compared with CCCCc1nc(-c2ccc(F)c(C)c2)nn1CC(=O)N1CCN(c2ncccn2)CC1 [Example 07.04.117.], CCCCCc1nc(-c2ccc(F)c(C)c2)nn1CC(=O)N1CCN(c2ncccn2)CC1 [Example 07.04.127.] is 0.78 log units higher in pEC50: 6.41 for the first, 7.19 for the second.

First: CCCCc1nc(-c2ccc(F)c(C)c2)nn1CC(=O)N1CCN(c2cc(OC)ccn2)CC1 [Example 07.04.118.]
Second: CCCCCc1nc(-c2ccc(F)c(C)c2)nn1CC(=O)N1CCN(c2cc(OC)ccn2)CC1 [Example 07.04.123.]
The pEC50 of the first is 0.45 log units lower: 6.59 for the first, 7.04 for the second.

CCCCCc1nc(-c2ccc(F)c(C)c2)nn1CC(=O)N1CCN(c2ccccn2)CC1 [Example 07.04.124.] and CCCCCc1nc(-c2ccc(F)c(C)c2)nn1CC(=O)N1CCN(c2cc(OC)ncn2)CC1 [Example 07.04.126.] are within 0.2 log units of each other in pEC50: 6.90 for the first, 6.96 for the second.

Cc1cc(-c2nc(C3CCC(C)CC3)n(CC(=O)N3CCN(c4ncccn4)CC3)n2)ccc1F (stereo not shown) [Example 07.04.128.] and Cc1cc(-c2nc(C3CCCC(C)C3)n(CC(=O)N3CCN(c4ncccn4)CC3)n2)ccc1F (stereo not shown) [Example 07.04.145.] are within 0.2 log units of each other in pEC50: 6.31 for the first, 6.43 for the second.

Cc1cc(-c2nc(C3CCC(C)CC3)n(CC(=O)N3CCN(c4ccccn4)CC3)n2)ccc1F (stereo not shown) [Example 07.04.129.] and Cc1cc(-c2nc(C3CCCC(C)C3)n(CC(=O)N3CCN(c4ccccn4)CC3)n2)ccc1F (stereo not shown) [Example 07.04.149.] are within 0.2 log units of each other in pEC50: 5.88 for the first, 6.06 for the second.

Cc1ccnc(N2CCN(C(=O)Cn3nc(-c4ccc(F)c(C)c4)nc3C3CCC(C)CC3)CC2)c1 (stereo not shown) [Example 07.04.130.] and COc1ccnc(N2CCN(C(=O)Cn3nc(-c4ccc(F)c(C)c4)nc3C3CCC(C)CC3)CC2)c1 (stereo not shown) [Example 07.04.131.] are within 0.2 log units of each other in pEC50: 6.07 for the first, 6.00 for the second.

COc1cc(N2CCN(C(=O)Cn3nc(-c4ccc(F)c(C)c4)nc3C3CCC(C)CC3)CC2)ncn1 (stereo not shown) [Example 07.04.132.] and COc1cc(N2CCN(C(=O)Cn3nc(-c4ccc(F)c(C)c4)nc3C3CCCC(C)C3)CC2)ncn1 (stereo not shown) [Example 07.04.147.] are within 0.2 log units of each other in pEC50: 6.02 for the first, 6.15 for the second.

Cc1ccnc(N2CCN(C(=O)Cn3nc(-c4ccc(F)c(C)c4)nc3C3CCCCC3C)CC2)c1 (stereo not shown) [Example 07.04.134.] and COc1ccnc(N2CCN(C(=O)Cn3nc(-c4ccc(F)c(C)c4)nc3C3CCCCC3C)CC2)c1 (stereo not shown) [Example 07.04.136.] are within 0.2 log units of each other in pEC50: 5.99 for the first, 5.91 for the second.

Cc1ccnc(N2CCN(C(=O)Cn3nc(-c4ccc(F)cn4)nc3-c3ccc(F)cc3)CC2)c1 [Example 07.04.138.] and Cc1ccnc(N2CCN(C(=O)Cn3nc(-c4ccc(F)cc4)nc3-c3ccc(F)cn3)CC2)c1 [Example 07.04.143.] are within 0.2 log units of each other in pEC50: 6.00 for the first, 6.11 for the second.

First: O=C(Cn1nc(-c2ccc(F)cn2)nc1-c1ccc(F)cc1)N1CCN(c2ccccn2)CC1 [Example 07.04.139.]
Second: O=C(Cn1nc(-c2ccc(F)cn2)nc1-c1ccc(F)cc1)N1CCN(c2ncccn2)CC1 [Example 07.04.140.]
The pEC50 of the first is 0.40 log units lower: 6.09 for the first, 6.49 for the second.

Going from COc1cc(N2CCN(C(=O)Cn3nc(-c4ccc(F)cn4)nc3-c3ccc(F)cc3)CC2)ncn1 [Example 07.04.141.] to COc1ccnc(N2CCN(C(=O)Cn3nc(-c4ccc(F)cn4)nc3-c3ccc(F)cc3)CC2)c1 [Example 07.04.142.], the pEC50 rises from 6.03 to 6.36 (0.33 log units). The second is the more potent here.

Compared with Cc1cc(-c2nc(C3CCC(F)(F)CC3)n(CC(=O)N3CCN(c4ncccn4)CC3)n2)ccc1F [Example 07.04.144.], Cc1cc(-c2nc(-c3ccc(F)c(C)c3)n(CC(=O)N3CCN(c4ncccn4)CC3)n2)ccc1F [Example 07.04.153.] is 1.76 log units higher in pEC50: 5.90 for the first, 7.66 for the second.

Cc1ccnc(N2CCN(C(=O)Cn3nc(-c4ccc(F)c(C)c4)nc3C3CCCC(C)C3)CC2)c1 (stereo not shown) [Example 07.04.146.] and COc1ccnc(N2CCN(C(=O)Cn3nc(-c4ccc(F)c(C)c4)nc3C3CCCC(C)C3)CC2)c1 (stereo not shown) [Example 07.04.148.] are within 0.2 log units of each other in pEC50: 5.87 for the first, 6.04 for the second.

Going from O=C(Cn1nc(-c2ccc(F)cc2)nc1CCc1ccccc1)N1CCN(c2ncccn2)CC1 [Example 07.04.150.] to Cc1ccnc(N2CCN(C(=O)Cn3nc(-c4ccc(F)cc4)nc3CCc3ccccc3)CC2)c1 [Example 07.04.151.], the pEC50 falls from 6.49 to 6.25 (0.24 log units).

Compared with COc1ccc(-c2nc(-c3ccccc3)n(CC(=O)N3CCN(c4cc(OC)ncn4)CC3)n2)cc1 [Example 07.04.152.], COc1cc(N2CCN(C(=O)Cn3nc(-c4ccc(OC(F)F)cc4)nc3-c3ccccc3)CC2)ncn1 [Example 7.04.162] is 0.96 log units higher in pEC50: 6.76 for the first, 7.72 for the second. The second is the more potent here.

Cc1cc(-c2nc(-c3ccc(F)c(C)c3)n(CC(=O)N3CCN(c4ccccn4)CC3)n2)ccc1F [Example 07.04.154.] and COc1cc(N2CCN(C(=O)Cn3nc(-c4ccc(F)c(C)c4)nc3-c3ccc(F)c(C)c3)CC2)ncn1 [Example 07.04.155.] are within 0.2 log units of each other in pEC50: 7.27 for the first, 7.23 for the second.

Going from COc1cc(-c2nc(-c3ccc(F)cc3)n(CC(=O)N3CCN(c4ncccn4)CC3)n2)ccc1F [Example 07.04.156.] to COc1cc(-c2nc(-c3ccc(F)cc3)n(CC(=O)N3CCN(c4ccccn4)CC3)n2)ccc1F [Example 07.04.157.], the pEC50 falls from 7.74 to 7.44 (0.30 log units).

Going from COc1cc(N2CCN(C(=O)Cn3nc(-c4ccc(F)c(OC)c4)nc3-c3ccc(F)cc3)CC2)ncn1 [Example 07.04.158.] to CCOc1ccnc(N2CCN(C(=O)Cn3nc(-c4ccc(F)cc4)nc3-c3ccc(F)cc3)CC2)c1 [Example 07.05.01., 2-(3,5-Bis-(4-fluoro-phenyl)-(1,2,4)triazol-1-yl)-1-(4-(4-ethoxy-pyridin-2-yl)-piperazin-1-yl)-ethanone], the pEC50 falls from 7.57 to 7.30 (0.27 log units). The first is the more potent here.

Compared with COc1ccc(-c2nc(-c3ccccc3)n(CC(=O)N3CCN(c4cccc(OC)n4)CC3)n2)cc1 [Example 07.04.159.], COc1ccc(-c2nc(-c3ccccc3)n(CC(=O)N3CCN(c4cc(C)ccn4)CC3)n2)cc1 [Example 07.04.160.] is 0.55 log units higher in pEC50: 6.55 for the first, 7.10 for the second. The second is the more potent here.

Going from COc1cccc(-c2nc(C(C)C)n(CC(=O)N3CCN(c4ncccn4)CC3)n2)c1 [Example 07.04.161.] to CCc1nc(-c2ccc(OC(F)F)cc2)nn1CC(=O)N1CCN(c2ncccn2)CC1 [Example 7.04.163], the pEC50 rises from 5.82 to 6.07 (0.25 log units). The second is the more potent here.

First: O=C(Cn1nc(-c2ccc(OC(F)F)cc2)nc1-c1ccccc1)N1CCN(c2ccccn2)CC1 [Example 7.04.164]
Second: O=C(Cn1nc(-c2ccccc2)nc1-c1ccc(OC(F)F)cc1)N1CCN(c2ccccn2)CC1 [Example 7.04.166]
The pEC50 of the first is 1.29 log units higher: 7.66 for the first, 6.37 for the second.

Compared with O=C(Cn1nc(-c2ccc(OC(F)F)cc2)nc1-c1ccccc1)N1CCN(c2ncccn2)CC1 [Example 7.04.165], CCCc1nc(-c2ccc(OC(F)F)cc2)nn1CC(=O)N1CCN(c2ncccn2)CC1 [Example 7.04.168] is 1.29 log units lower in pEC50: 7.89 for the first, 6.60 for the second. The first is the more potent here.

First: CCCc1nc(-c2ccc(OC(F)F)cc2)nn1CC(=O)N1CCN(c2ccccn2)CC1 [Example 7.04.167]
Second: CCCc1nc(-c2ccc(OC(F)F)cc2)nn1CC(=O)N1CCN(c2cc(OC)ncn2)CC1 [Example 7.04.169]
The pEC50 of the first is 0.25 log units higher: 6.28 for the first, 6.03 for the second. The first is the more potent here.

Work on CCc1ccnc(N2CCN(C(=O)Cn3nc(-c4ccc(F)cc4)nc3-c3ccc(F)cc3)CC2)c1 [Example 07.05.02.] yielded a pEC50 of 7.37.
